Measurements taken from article PMC3334764, “Effect of fluid loading during hypovolaemic shock on caspofungin pharmacokinetic parameters in pig” (Critical Care, 2011).
Like-named read-outs stand apart in the source and are kept apart here. Marks after values point to notes of the source that are not given here.

What was measured:
[1] = surgical ICU patients; 24-hour trough plasma concentration; cited from earlier work
Text: The pharmacokinetics of caspofungin have been recently studied in a cohort of surgical ICU patients. […] Therefore, the authors concluded that a dose adjustment may be necessary in some ICU patients, based on the monitoring of plasma conc ...

[2] = Two-compartment population pharmacokinetic analysis (Monolix) of plasma caspofungin in pigs; type: in vivo; settings: pig; for Q (intercompartmental clearance) / V1 (central volume of distribution) / V2 (peripheral volume of distribution) / clearance: two-compartment population estimate; for clearance: 70 mg one-hour iv infusion, read-out: CL (central elimination clearance) (converted)
Experimental: (§1) The AUC from zero to four hours (AUC0→4 hours) was determined using the trapezoidal rule. The concentration vs time data for both groups were modelled using the population approach method implemented in Monolix version 3.1 release 2 software. A two-compartment mammillary model was developed and parameterised in terms of central volume of distribution of caspofungin (V1) and elimination clearance of caspofungin (CL), peripheral volume of distribution of caspofungin (V2) and intercompartmental clearance of caspofungin (Q). The total apparent volume of distribution of caspofungin (Vd) was calculated as V1 + V2. The interindividual variability (ω) for each parameter and the residual variability of the model (σ) were estimated.

[3] = Caspofungin plasma pharmacokinetics in anaesthetised, ventilated pigs (shock vs control); type: in vivo; settings: pig, 70 mg one-hour iv infusion; for level at 4 h / AUC(0-t): iv, 70 mg; for level at 4 h: four hours after start of infusion, read-out: Cp (caspofungin plasma concentration at four hours); for AUC(0-t): unit as printed in abstract, read-out: area under curve (AUC) from zero to four hours
Experimental: (§2) In the shock group (n = 12), the animals were bled through the carotid catheter (Figure 1). Blood withdrawal was started at a rate of 0.8 to 1 mL/kg/minute and continued until all three of the following end points were achieved: MAP of 40 to 45 mmHg, decrease in CI greater than 40% and SVO2 lower than 30%. End points were maintained for a period of 120 minutes by means of further bleeding. During the four-hour resuscitation period, the animals received isotonic saline at a rate of 2 mL/kg/minute. The infusions were stopped when the CI reached 90% of the baseline value and SVO2 was above 50%, and the infusions were then adjusted to keep these parameters constant until the animals were killed. At the beginning of the resuscitation period, the animals received a one-hour intravenous infusion of 70 mg of caspofungin acetate (Cancidas; Merck Sharp & Dohme-Chibret, Paris, France) diluted in 50 mL of saline, which was injected into the right atrium through the proximal lumen of the pulmonary arterial catheter via a pump-driven syringe. A second group of animals (n = 16) used as controls was anaesthetised and ventilated, but they were not subjected to bleeding and fluid loading. These animals were also killed four hours after the start of the caspofungin infusion.
(§3) EDTA-blood samples were drawn through a dedicated arterial catheter just before and 15, 30, 60 and 90 minutes and 2 hours, 3 hours and 4 hours after the caspofungin infusions were started in both groups. Then the animals were immediately killed, and lung tissue samples (2 cm × 2 cm × 2 cm) were surgically removed from nondependent parts of both the lower and upper lobes after sternotomy. Plasma was obtained by blood centrifugation at 1,500 g for 15 minutes. Plasma and lung samples were immediately stored at -80°C. The remaining lung tissues were used for the determination of extravascular lung water indexed to body weight (EVLWI) by using a gravimetric method as previously described. Caspofungin acetate was kindly provided by Merck Sharp & Dohme-Chibret. Plasma and lung caspofungin concentrations were determined by using a validated high-performance liquid chromatography method with fluorescence detection after a solid-phase extraction (Bond Elut™ column; Agilent Technologies, Santa Clara, CA, USA). Caspofungin and the internal standard (IS) propranolol were separated on a LiChrospher column (100 RP-8e (5 μm); Merck Chemicals KGaA, Darmstadt, Germany) using a mobile phase consisting of acetonitrile and 0.1% trifluoroacetic acid buffer (200:300 vol/vol) at a flow rate of 1 mL/minute. The retention times were 6 and 22 minutes for IS and caspofungin, respectively. The linearity range was 0.3 to 7.5 mg/L (r^2 > 0.998). The lower limit of quantification, defined as the lowest concentration that could be determined with a relative error and precision (relative standard deviation) less than 20%, was 0.3 μg/mL. Intraday and interday levels of interassay precision were 1.91% and 4.84% (0.5 μg/mL), 6.94% and 10.4% (3 μg/mL) and 7.84% and 12% (5 μg/mL) for serum samples. The maximal concentration (Cmax) was measured at the end of the infusion.
as §1

[4] = Lung tissue caspofungin concentration and tissue-to-plasma ratio in pigs; type: in vivo; settings: pig
Experimental: as §2
as §3, with “Intraday and interday levels of interassay precision were 1.91% and 4.84% (0.5 μg/mL), 6.94% and 10.4% (3 μg/mL) and 7.84% and 12% (5 μg/mL) for serum samples.” left out
Lung samples were weighed (200 ± 150 mg), homogenised with a 1.5-mL saline solution, ground for 15 minutes and centrifuged twice at 10,000 rpm for 10 minutes. […] Lung caspofungin concentrations (Ct) were determined four hours after starting the caspofungin infusion and are expressed as micrograms per gram of lung tissue. The tissue-to-plasma ratio for each group was calculated as R = (Ct/Cp) × 100, where Cp is the caspofungin plasma concentration at four hours.

[5] = healthy humans, single dose of 70 mg, cited from earlier work
Experimental: In the early clinical development program for caspofungin, a target concentration of 1 μg/mL was used as a guide for concentrations likely to be efficacious. This target was determined on the basis of in vitro susceptibility test results and was selected as the concentration that exceeded the minimal inhibitory concentration at which 90% of Candida spp. isolates were inhibited.

SMILES: CC[C@H](C)C[C@H](C)CCCCCCCCC(=O)N[C@H]1C[C@@H](O)[C@@H](NCCN)NC(=O)[C@@H]2[C@@H](O)CCN2C(=O)[C@H]([C@H](O)CCN)NC(=O)[C@H]([C@H](O)[C@@H](O)c2ccc(O)cc2)NC(=O)[C@@H]2C[C@@H](O)CN2C(=O)[C@H]([C@@H](C)O)NC1=O [caspofungin, caspofungin acetate]
- patients in whom the trough concentration at day 2 of treatment exceeded 1.0 μg/mL [1]: 75%
- Q (intercompartmental clearance) ([2]; control group (n = 16)): 4.23 L/h
- V1 (central volume of distribution) ([2]; control group (n = 16)): 0.98 L
- V2 (peripheral volume of distribution) ([2]; control group (n = 16)): 1.43 L
- clearance ([2]; plasma, iv, 70 mg, control group (n = 16)): 4.83 mL/min
- clearance ([2]; plasma, iv, 70 mg, shock group (n = 12)): 3.5 mL/min
- Q (intercompartmental clearance) ([2]; shock group (n = 12)): 8.16* L/hour
- V1 (central volume of distribution) ([2]; shock group (n = 12)): 0.96 L
- V2 (peripheral volume of distribution) ([2]; shock group (n = 12)): 2.8* L
- Vd ([2]; plasma, iv, 70 mg, shock group (n = 12), calculated as V1 + V2, read-out: Vd (total apparent volume of distribution)): 3.9 L
- Cmax (maximum caspofungin plasma concentration) ([3]; control group (n = 16), no haemorrhage, measured at end of infusion, HPLC with fluorescence detection, median): 33100 ng/mL
- level at 4 h ([3]; plasma, control group (n = 16), median): 20700 ng/mL
- AUC(0-t) ([3]; plasma, control group, median): 80800 ng·h/mL
- level at 4 h ([3]; plasma, shock group (n = 12), median): 16100 ng/mL
- AUC(0-t) ([3]; plasma, shock group, median): 60300 ng·h/mL
- median AUC0→4 hours lower in the shock group than in the control group ([3]; shock vs control group): 25%
- median maximal plasma concentration lower in the shock group than in the control group ([3]; shock vs control group): 35%
- Cmax ([3]; plasma, shock group (n = 12), hypovolaemic shock then saline fluid loading, measured at end of infusion, HPLC with fluorescence detection, median, read-out: Cmax (maximum caspofungin plasma concentration)): 21600 ng/mL
- Ct (lung caspofungin concentration at four hours) ([4]; control group (n = 16), 70 mg one-hour iv infusion, lung homogenate, four sampled lobes averaged, HPLC with fluorescence detection, median): 1.64 µg/g
- Ratio = (Ct/Cp) × 100 (lung tissue-to-plasma ratio) ([4]; control group (n = 16), four hours after start of infusion, median): 7.28%
- tissue level at time at 4 h ([4]; shock group (n = 12), 70 mg one-hour iv infusion, lung homogenate, four sampled lobes averaged, HPLC with fluorescence detection, median, read-out: Ct (lung caspofungin concentration at four hours)): 1220 ng/g
- Ratio = (Ct/Cp) × 100 (lung tissue-to-plasma ratio) ([4]; shock group (n = 12), four hours after start of infusion, median): 7.76%
- median lung caspofungin concentration lower in the shock group than in the control group ([4]; shock vs control group, four hours after start of infusion): 25%
- concentration at 24 hours (trough concentration) ([5]; mean (95% confidence interval, 1.18 to 1.71)): 1420 ng/mL
- mean plasma Cmax ([5]; mean (95% confidence interval, 10.87 to 13.33)): 12040 ng/mL
